Results reported in patent US8367829B2, “Bi-functional pyrazolopyridine compounds” (Gilead Sciences, Inc., priority 2010, dated 2013).

Columns and labels:
[1] = biological target: T1, human recombinant beta-2 adrenoreceptors (Homo sapiens, UniProt P07550); test: Functional agonism of human recombinant beta-2 adrenoreceptors expressed in CHO cells (cAMP, HTRF); format: cell-based; conditions: cAMP elevation, 30 min
T1 construct: expressed in transfected cells; host or cells: CHO cells
Method: Functional Agonism of Human Recombinant Beta-2 Adrenoreceptors Expressed in Chinese Hamster Oocytes (CHO)
Test compounds were incubated for 30 min with CHO cells expressing the human recombinant beta-2 adrenoreceptors. Agonism of the receptor was measured by the elevation of intracellular cyclic-AMP over control levels detected using a homogeneous time resolved fluorescence (HTRF) format. Compounds were determined to be “full” or “partial” agonists based on the maximum level of cAMP accumulated compared to the control compound isoproterenol which is a full agonist in this assay system. Concentration response curves were generated for test compounds and the EC50 (molar concentration of the agonist which produced 50% of the maximal response for that compound) was determined. These assays were performed using a protocol based on the original description of the assay by Baker, J. G. (2005) Brit. J. Pharmacol.; 144:317-322.
EC50 determinations for the compounds presented above are seen in the third column of Table 1 (Beta 2 EC50).

Human recombinant PDE4B2 = biological target: T2, Human recombinant PDE4B2 (Homo sapiens, UniProt Q07343); test: Inhibition of PDE4B2 enzyme activity (PDE Glo Assay); format: biochemical; conditions: human recombinant PDE4B2, 50 nM cAMP; read-out: PDE4 IC50
T2 construct: purchased BPS Bioscience
T2 sequence (Q07343 1-564 isoform Q07343-2): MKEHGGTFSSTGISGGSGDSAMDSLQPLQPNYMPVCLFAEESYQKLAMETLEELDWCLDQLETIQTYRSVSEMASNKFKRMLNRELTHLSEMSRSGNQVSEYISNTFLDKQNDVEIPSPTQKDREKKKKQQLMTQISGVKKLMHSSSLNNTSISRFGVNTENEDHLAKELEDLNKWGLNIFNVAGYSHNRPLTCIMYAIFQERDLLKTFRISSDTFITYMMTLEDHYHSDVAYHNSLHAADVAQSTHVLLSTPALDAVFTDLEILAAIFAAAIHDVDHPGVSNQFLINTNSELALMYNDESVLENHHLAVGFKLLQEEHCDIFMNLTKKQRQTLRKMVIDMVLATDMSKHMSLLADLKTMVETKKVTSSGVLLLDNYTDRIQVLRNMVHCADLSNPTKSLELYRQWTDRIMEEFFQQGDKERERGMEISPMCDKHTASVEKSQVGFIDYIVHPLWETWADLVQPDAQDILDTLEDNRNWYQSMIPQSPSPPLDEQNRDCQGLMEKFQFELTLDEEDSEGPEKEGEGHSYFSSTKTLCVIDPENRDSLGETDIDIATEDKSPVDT
Method: Inhibition of PDE4B4 Enzyme Activity
The inhibitory activity of test compounds were determined using the PDE Glo Assay (Promega, V1361). The PDE-Glo Reaction Buffer was prepared (1 mL 5× buffer+4 mL water) and 150 nM solution of test compound dissolved in the Reaction Buffer, followed by 1:3 serial dilutions into Reaction Buffer. […] Human recombinant PDE4B2 (BPS Bioscience) was added to test compound in Reaction Buffer at a concentration of 0.12 nM per reaction. The enzyme and test compound were pre-incubated together at rt for 10 min. 50 nM of the enzyme substrate cAMP was then added to initiate the enzyme reaction, with the reaction terminated after one hour. Termination Buffer (1 mL 5× termination buffer+3.9 mL water+100 μL of 100 mM IBMX (ICN Chemicals, in DMSO)), was added to each reaction well to terminate the reaction. Detection Buffer (1 mL 5×PDE-Glo Detection buffer+3.96 mL water+40 μL PKA (supplied in kit)) was added to the cAMP-enzyme-test compound mix and this secondary reaction proceeded for 20 minutes at rt. An equal volume of Kinase Glo Reagent was then added to the reaction mixture and after 10 min luminescence was measured using a luminometer (EnVision, 0.1 sec read for luminescence). Luminescence values were […] related to levels of cAMP in the reaction mixture. Data were plotted as relative light units (RLU) versus test compound concentration and the IC50 determined using GraphPad Prism 5.0, using a nonlinear curve fit in a single-site binding model.
IC50 determinations for the compounds presented above are seen in the first column of Table 1 (PDE4 IC50).

[2] = biological target: T1, human recombinant beta-2 adrenoreceptors; test: Beta-2 adrenoceptor binding assay, displacement of [3H](−)CGP-12177; conditions: CHO cells expressing human beta-2 adrenoreceptors, [3H](−)CGP-12177 0.3 nM, 120 min
Method: Beta-2 Adrenoceptor Binding Assay
Test compounds were incubated for 120 min with Chinese hamster oocyte (CHO) cells expressing the human recombinant beta-2 adrenoreceptors. Binding of test compounds to the beta-2 adrenoreceptors was determined by measuring the displacement of the radiolabeled ligand [^3H](−)CGP-12177 (0.3 nM) from the receptor measured by a scintillation counting. Concentration response curves were generated for test compounds and the IC50 (molar concentration of the compound which produced 50% inhibition for the maximal response for that compound) was determined. These assays were performed using a protocol based on the original description of the assay by Joseph et al., (2004) Naun.-Sch. Arch. Pharm.; 369:525-532.
IC50 determinations for the compounds presented above are seen in the second column of Table 1 (Beta 2 IC50).

[3] = system: LPS-induced TNF-α release from human peripheral blood mononuclear cells (PBMC); test: Inhibition of LPS-induced TNF-α release from human PBMC; format: cell-based; conditions: LPS 0.4 ng/mL, 6 h, presence or absence of ICI-118551 not given
Source text: Inhibition of Lipopolysaccharide (LPS)-Induced Tumour Necrosis Factor Alpha (TNF-α) Release from Human Peripheral Blood Mononuclear Cells (PBMC)
Human whole blood was drawn from donors and cell purification initiated within two hours. Peripheral blood mononuclear cells (PBMC) were purified using a standard Ficoll gradient purification technique and aliquoted at a concentration of 100,000 cells/well in 96 well plates. Beta-2 adrenoreceptor agonists are also anti-inflammatory for some immune cells expressing the receptor and in this assay they can inhibit tumor necrosis factor-alpha (TNF-α) production. Therefore PBMC were pre-incubated for 30 min in the presence of the beta-2 adrenoreceptor antagonist ICI-118551 (3-(isopropylamino)-1-[(7-methyl-4-indanyl)oxy]butan-2-ol) (10 μM) to determine the PDE4 directed activity of test compounds, and in the absence of ICI-118551 for the combined PDE4 and beta-2 receptor directed activity. Test compounds were dissolved in DMSO and diluted in buffer (final DMSO concentration of 0.1% v/v) and were then added to the cell suspensions and pre-incubated for a further 1 h at 37° C. LPS solution was then added (0.4 ng/mL) and the cells incubated for a further 6 h. At the end of the incubation period the cell supernatants were collected and TNF-α was measured using a Procarta Cytokine Assay Kit (Affymetrix, Santa Clara, Calif.) according to the manufacturers' instructions. Data were analyzed using MiraiBio Masterplex QT v4.0 software (MasterPlex Version 1.0.1.18 Copyright 2008, Hitachi Software Engineering Co., Ltd) and used to extrapolate Mean Fluorescence Intensity (MFI) into concentrations of TNF-α and mean values from replicate wells were determined. Inhibition curves were plotted using a nonlinear curve fit employing a single-site binding model to determine the IC50 value for each test compound in the presence or absence of ICI-118551 using GraphPad Prism 5 for Windows, version 5.02 (GraphPad Software, San Diego Calif.).
EC50 determinations for the compounds presented above are seen in the fourth column of Table 1 (PBMC TNF EC50).

T1 sequence (P07550 whole entry): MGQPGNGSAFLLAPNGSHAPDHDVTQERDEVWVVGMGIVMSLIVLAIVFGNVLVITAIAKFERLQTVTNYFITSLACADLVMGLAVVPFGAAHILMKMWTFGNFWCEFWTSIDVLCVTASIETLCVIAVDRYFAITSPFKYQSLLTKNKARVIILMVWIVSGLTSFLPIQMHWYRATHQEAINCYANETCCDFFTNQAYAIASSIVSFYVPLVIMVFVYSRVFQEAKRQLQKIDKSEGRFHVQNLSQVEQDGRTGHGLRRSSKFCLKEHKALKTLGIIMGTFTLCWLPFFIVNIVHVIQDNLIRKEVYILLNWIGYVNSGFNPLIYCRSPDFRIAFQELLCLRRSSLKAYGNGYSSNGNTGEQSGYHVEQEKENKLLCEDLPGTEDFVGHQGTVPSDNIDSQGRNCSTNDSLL

EC50 [1] [µM] | IC50 (Human recombinant PDE4B2) [µM] | IC50 [2] [µM] | SMILES | EC50 [3] [µM]
< 0.1 | < 0.1 | > 0.3 | CCc1nc2c(cnn2CC)c(NC2CCOCC2)c1CNC(=O)CCCCCCCNC[C@H](O)c1ccc(O)c2[nH]c(=O)ccc12 [Example 10, (R)—N-[[1,6-Diethyl-4-[(tetrahydro-2H-pyran-4-yl)amino]-1H-pyrazolo[3,4-b]pyridin-5-yl]methyl]-8-[[2-hydroxy-2-(8-hydroxy-2-oxo-1,2-dihydroquinolin-5-yl)ethyl]amino]octanamide] | < 0.1
< 0.1 | < 0.1 | < 0.1 | CCc1nc2c(cnn2CC)c(NC2CCOCC2)c1CNC(=O)Nc1ccc(C#CCCCNC[C@H](O)c2ccc(O)c3[nH]c(=O)ccc23)cc1 [Example 11] | < 0.1
< 0.1 | < 0.1 | < 0.1 | CCc1nc2c(cnn2CC)c(NC2CCOCC2)c1CNC(=O)Nc1ccc(CCCCCNC[C@H](O)c2ccc(O)c3[nH]c(=O)ccc23)cc1 [Example 12, (R)-1-((1,6-diethyl-4-((tetrahydro-2H-pyran-4-yl)amino)-1H-pyrazolo[3,4-b]pyridin-5-yl)methyl)-3-(4-(5-((2-hydroxy-2-(8-hydroxy-2-oxo-1,2-dihydroquinolin-5-yl)ethyl)amino)pentyl)phenyl)urea] | < 0.1
